Test results taken from article PMC7251097, “Aspartate/asparagine-β-hydroxylase: a high-throughput mass spectrometric assay for discovery of small molecule inhibitors” (Scientific Reports, 2020).
Where a name gives a salt, the structure may show the parent alone. Read-outs that look alike come from different tables or passages of the source.

Biological target: T1, His6-AspH315–758 (human aspartate/asparagine-β-hydroxylase, AspH) (Homo sapiens, UniProt Q12797)
T1 construct: N-Terminally His6-tagged human AspH315–758 (His6-AspH315–758) was produced in E. coli BL21 (DE3) cells; made in house; host or cells: E. coli BL21 (DE3), pET-28a(+) vector
T1 sequence (Q12797 315-758): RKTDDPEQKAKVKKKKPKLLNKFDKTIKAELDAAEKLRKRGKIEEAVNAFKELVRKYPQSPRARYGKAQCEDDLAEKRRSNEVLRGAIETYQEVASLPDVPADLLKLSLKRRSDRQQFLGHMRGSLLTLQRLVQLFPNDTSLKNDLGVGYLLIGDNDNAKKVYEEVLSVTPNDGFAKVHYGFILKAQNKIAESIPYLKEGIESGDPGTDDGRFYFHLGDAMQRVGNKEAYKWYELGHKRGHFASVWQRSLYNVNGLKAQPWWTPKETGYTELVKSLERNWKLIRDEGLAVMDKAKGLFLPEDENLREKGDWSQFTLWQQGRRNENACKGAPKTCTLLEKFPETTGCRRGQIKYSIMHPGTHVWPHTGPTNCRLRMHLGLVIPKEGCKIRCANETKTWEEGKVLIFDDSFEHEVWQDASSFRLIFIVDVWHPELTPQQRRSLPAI
Assay: SPE-MS AspH inhibition assay (LOPAC screen at fixed 20 μM and IC50 dose-response), hydroxylation of cyclic peptide hFX-CP101–119
Format: biochemical
Settings: for Inhibition at 20 µM [%]: AspH activity, fixed compound concentration 20 μM, initial LOPAC screen, 0.5%v/v DMSO

[1] = LOPAC Plate 4, compound at 20 uM, substrate conversion
[2] = LOPAC Plate 4, compound at 20 uM
[3] = LOPAC compound at 20uM, conversion of substrate peptide
[4] = LOPAC compound at fixed 20 uM, plate 1, normalised to DMSO and 2,4-PDCA controls
[5] = LOPAC compound at fixed 20 uM, substrate conversion, plate 1
[6] = LOPAC compound at 20uM, plate 2, conversion of substrate peptide
[7] = LOPAC compound at 20uM, plate 2, normalised to DMSO and 2,4-PDCA controls, read-out: Plate 2 (% inhibition)
[8] = plate 5 (Pfitzer), test compounds at fixed 20 μM
[9] = LOPAC Plate 4, compound at 20 uM, read-out: % inhibition

For Cc1cccc(/C=C/c2ccccc2)n1 [SIB 1893], the “% conversion” value [1] was 34.05%.

Br.Cc1cccc(C2CN(C)CCc3c2cc(O)c(O)c3Cl)c1 (centres unmarked) [SKF 83959 hydrobromide, reference compound] was tested, and the “Inhibition at 20 µM [%]” value was 95.1%, the “% inhibition” value [2] was 95.13% and the “% conversion” value [1] was 4.00%.

For CN1CCc2cccc(Cl)c2CC1 [SKF 86466], the “% conversion” value was 40.52% and the inhibition at 20 µM was -11.9%.

For O=C(O)/C=C\C(=O)O.O=C(O)/C=C\C(=O)O.c1cc(CN2CCCCC2)cc(OCCCNc2nc3ccccc3s2)c1 [SKF 95282 dimaleate], the “% conversion” value was 24.14%.

CCCC(C(=O)OCCN(CC)CC)(c1ccccc1)c1ccccc1.Cl [SKF-525A hydrochloride] was tested, and the “Plate 3 (% conversion)” value [3] was 49.23%.

Br.CN1Cc2sccc2C(c2ccc(O)c(O)c2)C1 (centres unmarked) [SKF-89145 hydrobromide] was tested, and the “Plate 1 (% inhibition)” value [4] was 78.75% and the “Plate 1 (% conversion)” value [5] was 9.43%.

In the case of C=CCNc1ncnc2ccc(Br)cc12 [SMER28], the “% conversion” value [1] is reported as 30.76%.

C=CCN1C[C@H](C)N([C@H](c2ccc(C(=O)N(CC)CC)cc2)c2cccc(OC)c2)C[C@H]1C [SNC80] was tested, and the “% conversion” value was 40.53% and the “% inhibition” value (20 µM) was -11.89%.

In the case of Oc1c2ccccc2c2c3c(cccc13)N=N2 [SP600125], the “Plate 2 (% conversion)” value [6] is reported as 37.53% and the inhibition at 20 µM [7] is reported as -4.71%.

With Nc1ncnc2c1ncn2C1CCCO1 (centres unmarked) [SQ 22536] the “% conversion” value was 37.42%.

CCc1ccccc1OC[C@@H](O)CN[C@H]1CCCc2ccccc21.O=C(O)C(=O)O [SR 59230A oxalate] was tested, and the “% conversion” value was 13.86% and the “% inhibition” value (20 µM) was 66.24%.

For COc1cccc(OC)c1-c1cc(C(=O)NC2(C(=O)O)C3CC4CC(C3)CC2C4)nn1-c1ccc(C(=O)N(C)CCCN(C)C)cc1C(C)C (centres unmarked) [SR 142948A], the “Plate 2 (% conversion)” value [6] was 44.18% and the “Plate 2 (% inhibition)” value (LOPAC compound at 20uM, plate 2, normalised to DMSO and 2,4-PDCA controls) was -24.57%.

In the case of Br.COc1ccc(-c2ccc(=N)n(CCCC(=O)O)n2)cc1 [SR-95531], the “% conversion” value is reported as 38.69% and the “% inhibition” value (20 µM) is reported as -6.50%.

In the case of Cc1cc(C)c(/C=C2\C(=O)Nc3ccc(Cl)cc32)[nH]1 [SU5614], the “Plate 5 (% inhibition)” value [8] is reported as 8.69%.

In the case of CN(C)c1ccc(/C=C2\C(=O)Nc3ccccc32)cc1 [SU 4312], the “% inhibition” value [2] is reported as 2.06% and the “% conversion” value [1] is reported as 35.77%.

In the case of CN(C)S(=O)(=O)c1ccc2c(c1)/C(=C/c1cc3c([nH]1)CCCC3)C(=O)N2 [SU 6656], the “% conversion” value [1] is reported as 31.14% and the inhibition at 20 µM [9] is reported as 15.6%.

CCCCCCCCCC[Si](C)(C)CCC(=O)NC(Cc1ccc(C)cc1)c1ccccc1 (centres unmarked) [Sandoz 58-035] was tested, and the “Plate 1 (% conversion)” value was 37.15% and the “Plate 1 (% inhibition)” value was -3.81%.

C[n+]1cc2c3c(ccc2c2ccc4cc5c(cc4c21)OCO5)OCO3 [Sanguinarine chloride] was tested, and the “% conversion” value was 10.82%.

With Cl.NNC(N)=O [Semicarbazide hydrochloride] the “% conversion” value was 22.57%.

In the case of C[C@H](O)C(=O)C1=Nc2c(nc(N)[nH]c2=O)NC1 [Sepiapterin], the “% conversion” value [1] is reported as 40.54% and the inhibition at 20 µM [9] is reported as -11.9%.

For NCCc1c[nH]c2ccc(O)cc12 [Serotonin hydrochloride], the “Plate 2 (% conversion)” value was 31.81% and the inhibition at 20 µM [7] was 12.4%.

With CCCc1nn(C)c2c(=O)[nH]c(-c3cc(S(=O)(=O)N4CCN(C)CC4)ccc3OCC)nc12.O=C(O)CC(O)(CC(=O)O)C(=O)O [Sildenafil citrate salt] the “Plate 1 (% inhibition)” value [4] was 83.33% and the “Plate 1 (% conversion)” value [5] was 7.89%.

For CC(C)(C)C(=O)Oc1ccc(S(=O)(=O)Nc2ccccc2C(=O)NCC(=O)[O-])cc1.[Na+] [Sivelestat sodium salt hydrate], the “Plate 3 (% conversion)” value [3] was 36.62%.

For CC(C)COC(=O)OCN1C(=O)CN(CCN2CC(=O)N(COC(=O)OCC(C)C)C(=O)C2)CC1=O [Sobuzoxane], the “% conversion” value was 68.13%.

NC(=O)C(=O)O [Sodium Oxamate] was tested, and the “Plate 3 (% conversion)” value [3] was 31.22%.

In the case of O=C1NC(=O)[C@@]2(CCOc3ccc(F)cc32)N1 [Sorbinil], the “Plate 1 (% inhibition)” value [4] is reported as -13.94% and the “Plate 1 (% conversion)” value [5] is reported as 40.55%.

In the case of NCCCCNCCCN [Spermidine trihydrochloride], the “% conversion” value [1] is reported as 36.29% and the inhibition at 20 µM [9] is reported as 0.53%.

NCCCNCCCCNCCCN [Spermine tetrahydrochloride] was tested, and the “% conversion” value [1] was 39.42% and the inhibition at 20 µM [9] was -8.64%.

In the case of O=C(CCCN1CCC2(CC1)C(=O)NCN2c1ccccc1)c1ccc(F)cc1 [Spiperone hydrochloride], the “% conversion” value [1] is reported as 26.03% and the inhibition at 20 µM [9] is reported as 30.6%.

For CC(=O)S[C@@H]1CC2=CC(=O)CC[C@]2(C)[C@H]2CC[C@@]3(C)[C@@H](CC[C@@]34CCC(=O)O4)[C@H]12 [Spironolactone], the “% conversion” value [1] was 41.84% and the inhibition at 20 µM [9] was -15.7%.

O=[N+]([O-])c1ccc2c(c1)S(=O)(=O)C=C2 [Stattic] was tested, and the “% conversion” value was 34.71% and the “% inhibition” value (20 µM) was 5.15%.

For C=C1C[C@@]23CC[C@H]4[C@@](C)(CCC[C@@]4(C)C(=O)O)[C@@H]2CC[C@]1(O)C3 [Steviol], the “% conversion” value [1] was 37.50% and the inhibition at 20 µM [9] was -3.02%.

C[N+](C)(C)CCOC(=O)CCC(=O)OCC[N+](C)(C)C [Succinylcholine chloride] was tested, and the “% conversion” value was 39.43% and the inhibition at 20 µM was -8.69%.

With Nc1ccc(S(=O)(=O)Nc2ccnn2-c2ccccc2)cc1 [Sulfaphenazole] the “% conversion” value [1] was 26.59%.

CC1=C(CC(=O)O)c2cc(F)ccc2/C1=C\c1ccc(S(C)(=O)=O)cc1 [Sulindac sulfone] was tested, and the “% conversion” value [1] was 33.98%.

In the case of CC1=C(CC(=O)O)c2cc(F)ccc2/C1=C\c1ccc([S+](C)[O-])cc1 (centres unmarked) [Sulindac], the “% conversion” value [1] is reported as 35.56% and the inhibition at 20 µM [9] is reported as 2.67%.

CCN(CC)CCNC(=O)c1c(C)[nH]c(/C=C2\C(=O)Nc3ccc(F)cc32)c1C [Sunitinib malate] was tested, and the “Plate 2 (% conversion)” value [6] was 11.67% and the inhibition at 20 µM [7] was 72.5%.

CCN(CC)CCNC(=O)c1c(C)[nH]c(/C=C2\C(=O)Nc3ccc(F)cc32)c1C [Sunitinib] was tested, and the “Plate 5 (% inhibition)” value [8] was 67.34% and the “Plate 5 (% conversion)” value (plate 5 (Pfitzer), test compounds at fixed 20 μM, mean conversion DMSO 32.88) was 13.39%.

In the case of CC(=O)/C=C1\C(=O)N(C)c2ccccc21 [Supercinnamaldehyde], the “Plate 1 (% inhibition)” value [4] is reported as -3.46% and the “Plate 1 (% conversion)” value [5] is reported as 37.03%.

In the case of Cc1ccc(C(=O)Nc2ccc(S(=O)(=O)[O-])c3cc(S(=O)(=O)[O-])cc(S(=O)(=O)[O-])c23)cc1NC(=O)c1cccc(NC(=O)Nc2cccc(C(=O)Nc3cc(C(=O)Nc4ccc(S(=O)(=O)[O-])c5cc(S(=O)(=O)[O-])cc(S(=O)(=O)[O-])c45)ccc3C)c2)c1.[Na+].[Na+].[Na+].[Na+].[Na+].[Na+] [Suramin sodium salt, reference compound], the “Inhibition at 20 µM [%]” value is reported as 103.3% and the “% conversion” value [1] is reported as 1.22%.

With O=C(Nc1ccncc1)c1cc([N+](=O)[O-])ccc1Cl [T0070907] the “Plate 3 (% conversion)” value [3] was 31.53%.

For Brc1c(Br)c(Br)c2[nH]cnc2c1Br [TBBz], the “Plate 1 (% conversion)” value was 32.96% and the “Plate 1 (% inhibition)” value was 8.67%.

With O=C(O)CCN(O)C(=O)CCCCCCCCC1CC1 [TC-E 5002, reference compound] the IC50 (50 nM His6-AspH315–758, 1.0 μM hFX-CP101–119, 3 μM 2OG, 2 μM Fe(II), 50 mM HEPES pH 7.5, 20 °C, mean ± SD, n = 2 (2,4-PDCA n = 10), read-out: IC50) was 6.66 ± 0.69 µM.

With Clc1cnc(Oc2ccc(Oc3ncc(Cl)cc3Cl)cc2)c(Cl)c1 [TCPOBOP] the “% conversion” value was 30.30%.

In the case of CCN1/C(=C/C(C)=O)Sc2ccc(OC)cc21 [TG003], the “Plate 3 (% conversion)” value [3] is reported as 40.97%.

For Cl.O=c1[nH]oc2c1CCNC2 [THIP hydrochloride], the “% conversion” value was 36.67% and the “% inhibition” value (20 µM) was -0.58%.

For CCN(CC)CCCCCCCCOC(=O)c1cc(OC)c(OC)c(OC)c1.Cl [TMB-8 hydrochloride], the “Plate 1 (% inhibition)” value [4] was -14.63% and the “Plate 1 (% conversion)” value [5] was 40.78%.

In the case of CCCCCCC(=O)OC1CC(C)(C)NC(C)(C)C1.Cl [TMPH hydrochloride], the “Plate 3 (% conversion)” value [3] is reported as 40.82%.

For CP(=O)(O)C1=CCNCC1 [TPMPA], the “% conversion” value was 27.88%.
